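Growth conditions: 96-well plates. Treatment: test compound, 48 hours, 5 concentrations. Analysis: linear interpolation between bracketing concentrations; unreached endpoints set to highest concentration. Abbreviation: GI50, concentration required for 50% inhibition of growth.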 Active and inactive are the calls of the source. No stated cut-off is given here; in the data, active = GI50 up to about 1.1 µM and inactive = higher. Where a SMILES comes first, the peptide text is derived from it. The star is where a group is joined. Cbz = O=C(OCc1ccccc1)*
Columns and labels:
Assay in all cases: NCI anticancer screen, dose series, 48 h
SK-MEL-28 = tested on: SK-MEL-28
RPMI-8226 = tested on: RPMI-8226
HOP-92 = tested on: HOP-92
HT-29 = tested on: HT-29
NCI-H23 = tested on: NCI-H23
SK-MEL-2 = tested on: SK-MEL-2
SW-620 = tested on: SW-620
OVCAR-8 = tested on: OVCAR-8
MOLT-4 = tested on: MOLT-4
MDA-MB-231 = tested on: MDA-MB-231
DU-145 = tested on: DU-145
OVCAR-3 = tested on: OVCAR-3
TK-10 = tested on: TK-10
IGROV-1 = tested on: IGROV-1
ACHN = tested on: ACHN
MDA-MB-435 = tested on: MDA-MB-435
SR = tested on: SR
UACC-257 = tested on: UACC-257
HCC 2998 = tested on: HCC 2998
KM12 = tested on: KM12

SMILES | GI50 (SK-MEL-28) | GI50 (RPMI-8226) | GI50 (HOP-92) | GI50 (HT-29) | GI50 (NCI-H23) | GI50 (SK-MEL-2) | GI50 (SW-620) | GI50 (OVCAR-8) | GI50 (MOLT-4) | GI50 (MDA-MB-231) | GI50 (DU-145) | GI50 (OVCAR-3) | GI50 (TK-10) | GI50 (IGROV-1) | GI50 (ACHN) | GI50 (MDA-MB-435) | GI50 (SR) | GI50 (UACC-257) | GI50 (HCC 2998) | GI50 (KM12)
CCOC(=O)c1c(CN2CCCC2)n(-c2ccccc2)c2cc(Br)c(OC)cc12 | 15.6 µM (inactive) | 12.8 µM (inactive) | 10.6 µM (inactive) | 7.57 µM (inactive) | 20.5 µM (inactive) | 18 µM (inactive) | 18 µM (inactive) | 29.2 µM (inactive) | 4.41 µM (inactive) | 17.2 µM (inactive) | 17.7 µM (inactive) | 24.9 µM (inactive) | 11.8 µM (inactive) | 16.5 µM (inactive) | 11.1 µM (inactive) | 26.9 µM (inactive) | 6.14 µM (inactive) | 13.2 µM (inactive) |  | 
CCOc1c(OC)cc(-c2nc3n(n2)C(=O)C(CC)S3)cc1OC (stereo not given) | > 10 µM (inactive) | > 10 µM (inactive) |  | > 10 µM (inactive) | > 10 µM (inactive) | > 10 µM (inactive) | > 10 µM (inactive) | > 10 µM (inactive) | > 10 µM (inactive) | > 10 µM (inactive) | > 10 µM (inactive) | > 10 µM (inactive) | > 10 µM (inactive) | > 10 µM (inactive) | > 10 µM (inactive) | > 10 µM (inactive) | > 10 µM (inactive) | > 10 µM (inactive) | > 10 µM (inactive) | > 10 µM (inactive)
COC(OC)[C@@H]1OC[C@H](n2cnc3c(N)ncnc32)[C@H]1O | > 100 µM (inactive) | > 100 µM (inactive) | > 100 µM (inactive) | > 100 µM (inactive) | > 100 µM (inactive) | > 100 µM (inactive) | > 100 µM (inactive) |  | > 100 µM (inactive) | > 100 µM (inactive) | > 100 µM (inactive) | > 100 µM (inactive) | > 100 µM (inactive) | > 100 µM (inactive) | > 100 µM (inactive) | > 100 µM (inactive) | > 100 µM (inactive) | > 100 µM (inactive) | > 100 µM (inactive) | > 100 µM (inactive)
CC1(C)OC(=O)CC12CCN(Cc1ccccc1)CC2 | > 100 µM (inactive) | > 100 µM (inactive) | > 100 µM (inactive) | > 100 µM (inactive) | > 100 µM (inactive) | > 100 µM (inactive) |  | > 100 µM (inactive) | > 100 µM (inactive) | > 100 µM (inactive) | > 100 µM (inactive) | > 100 µM (inactive) | > 100 µM (inactive) | > 100 µM (inactive) | > 100 µM (inactive) | > 100 µM (inactive) | > 100 µM (inactive) | > 100 µM (inactive) |  | 
C1=N\CCN2CCN(CC/N=C\c3ccccc3OCc3cccc(n3)COc3ccccc3/1)CC2 | 13.8 µM (inactive) | 2.48 µM (inactive) | 3.89 µM (inactive) | 8.2 µM (inactive) | 14.6 µM (inactive) | 20.6 µM (inactive) | 2.35 µM (inactive) | 11.8 µM (inactive) | 4.6 µM (inactive) | 16.4 µM (inactive) | 12.8 µM (inactive) | 1.3 µM (inactive) | 8.3 µM (inactive) | 11.2 µM (inactive) | 9.71 µM (inactive) | 0.973 µM (active) | 1.71 µM (inactive) | 10.5 µM (inactive) |  | 8.83 µM (inactive)
COC(=O)C(CC(C)C)NC(=O)C(CCCNC(=N)N)NC(=O)OCc1ccccc1 (stereo not drawn) (Cbz-Arg-Leu-OMe; configuration not given here) | > 100 µM (inactive) | > 100 µM (inactive) | > 100 µM (inactive) | > 100 µM (inactive) | > 100 µM (inactive) |  | > 100 µM (inactive) | > 100 µM (inactive) | > 100 µM (inactive) | > 100 µM (inactive) | > 100 µM (inactive) | > 100 µM (inactive) | > 100 µM (inactive) | > 100 µM (inactive) | > 100 µM (inactive) | > 100 µM (inactive) | > 100 µM (inactive) |  | > 100 µM (inactive) | > 100 µM (inactive)
COc1cc(/C=C/C(=O)C2(C(=O)/C=C/c3cc(OC)c(OC)c(OC)c3)CCCCC2)cc(OC)c1OC | 46.3 µM (inactive) | 18.3 µM (inactive) | 1.22 µM (inactive) | 35.7 µM (inactive) | 53.3 µM (inactive) | > 100 µM (inactive) | 38.3 µM (inactive) | 24.1 µM (inactive) |  | 42.9 µM (inactive) | 32.7 µM (inactive) | 23.3 µM (inactive) | 34.3 µM (inactive) | 27.4 µM (inactive) | 62.1 µM (inactive) | 21.5 µM (inactive) | 19.4 µM (inactive) | 76.9 µM (inactive) | 58.6 µM (inactive) | 26.6 µM (inactive)
O=C1C(Cl)C2(CC(/C=C/c3ccccc3Cl)=NN2c2cccc(S(=O)(=O)O)c2)N1c1nc2ccccc2s1 (stereo not given) | > 100 µM (inactive) | 9.29 µM (inactive) | 36.6 µM (inactive) | 98.2 µM (inactive) | 33.6 µM (inactive) | > 100 µM (inactive) | 19.4 µM (inactive) | 26.5 µM (inactive) | 10.3 µM (inactive) | 79.8 µM (inactive) | 21.2 µM (inactive) |  | 24.2 µM (inactive) | 26.9 µM (inactive) | 42.7 µM (inactive) | 1.5 µM (inactive) | 1.35 µM (inactive) | 66.8 µM (inactive) | 85.9 µM (inactive) | 14.7 µM (inactive)
CC1CN(c2cc3c(cc2F)c(=O)c(C(=O)O)cn3-c2ccc(N3CCN(C)CC3)cn2)CC(C)N1 (stereo not given) | > 100 µM (inactive) | > 100 µM (inactive) | > 100 µM (inactive) | > 100 µM (inactive) | > 100 µM (inactive) |  | 98.4 µM (inactive) | 44.5 µM (inactive) | 99.5 µM (inactive) | > 100 µM (inactive) | > 100 µM (inactive) | > 100 µM (inactive) | > 100 µM (inactive) | > 100 µM (inactive) |  | > 100 µM (inactive) | > 100 µM (inactive) | > 100 µM (inactive) |  | 87.5 µM (inactive)
Cc1ccc(S(=O)(=O)NNC(=S)Nc2cccc3ccccc23)cc1 | 54.1 µM (inactive) | 37.4 µM (inactive) | 30.6 µM (inactive) | 56.5 µM (inactive) | 32.3 µM (inactive) | 4.45 µM (inactive) | > 100 µM (inactive) | 37.5 µM (inactive) | 38.1 µM (inactive) | 54.8 µM (inactive) | 69 µM (inactive) |  | 53.7 µM (inactive) | 61.5 µM (inactive) | 29.9 µM (inactive) | 41.5 µM (inactive) | 46.3 µM (inactive) | 13.8 µM (inactive) | 53.8 µM (inactive) | 23.4 µM (inactive)
CCOC(=O)COc1ccc2c(C)cc(=O)oc2c1 | > 100 µM (inactive) | > 100 µM (inactive) | > 100 µM (inactive) | > 100 µM (inactive) | > 100 µM (inactive) | > 100 µM (inactive) | > 100 µM (inactive) | > 100 µM (inactive) | > 100 µM (inactive) | > 100 µM (inactive) | > 100 µM (inactive) | > 100 µM (inactive) |  | > 100 µM (inactive) | > 100 µM (inactive) | > 100 µM (inactive) | > 100 µM (inactive) | > 100 µM (inactive) | 34.4 µM (inactive) | > 100 µM (inactive)
O=C1c2ccccc2-c2nnc3c(c21)-c1ccccc1C3 |  | 57.1 µM (inactive) | > 100 µM (inactive) | 48 µM (inactive) | > 100 µM (inactive) | > 100 µM (inactive) | 53.2 µM (inactive) | 44.2 µM (inactive) | 24.5 µM (inactive) | > 100 µM (inactive) | > 100 µM (inactive) |  |  |  | 27.5 µM (inactive) | > 100 µM (inactive) | 12 µM (inactive) | > 100 µM (inactive) |  | > 100 µM (inactive)
COC(=O)c1cc(CC2Cc3cc4c(cc3C2=O)CCC4)cc2c1CCC2 (stereo not given) | > 100 µM (inactive) | > 100 µM (inactive) |  | 51.8 µM (inactive) | > 100 µM (inactive) | 63.7 µM (inactive) | > 100 µM (inactive) | > 100 µM (inactive) | > 100 µM (inactive) | > 100 µM (inactive) | > 100 µM (inactive) | > 100 µM (inactive) | > 100 µM (inactive) | > 100 µM (inactive) | > 100 µM (inactive) | > 100 µM (inactive) | > 100 µM (inactive) | 77.6 µM (inactive) | > 100 µM (inactive) | > 100 µM (inactive)
COc1ccc2[nH]c3c(c2c1)CCc1ccccc1-3 | > 100 µM (inactive) |  | 51.2 µM (inactive) | > 100 µM (inactive) | 41.7 µM (inactive) | > 100 µM (inactive) | > 100 µM (inactive) | 27.7 µM (inactive) | 80.9 µM (inactive) | 20.2 µM (inactive) | > 100 µM (inactive) | > 100 µM (inactive) | > 100 µM (inactive) | 19.8 µM (inactive) | > 100 µM (inactive) | > 100 µM (inactive) | 84.9 µM (inactive) | > 100 µM (inactive) | 64.3 µM (inactive) | 32.4 µM (inactive)
Clc1ccccc1-c1nn2c(CCCCCCCCc3nnc4sc(-c5ccccc5Cl)nn34)nnc2s1 | > 100 µM (inactive) | 54 µM (inactive) | > 100 µM (inactive) | 52.1 µM (inactive) | > 100 µM (inactive) | > 100 µM (inactive) | > 100 µM (inactive) | > 100 µM (inactive) | 16.5 µM (inactive) | 87.7 µM (inactive) | > 100 µM (inactive) | > 100 µM (inactive) | > 100 µM (inactive) |  | > 100 µM (inactive) | > 100 µM (inactive) | > 100 µM (inactive) | > 100 µM (inactive) | > 100 µM (inactive) | 87.3 µM (inactive)
